“And” between values parts separate entries of the source, which are not always exact repeats. Equal values may be shown once.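 Assay format: 96-well plates, 48-hour exposure. GI50 is the concentration that inhibits growth by half. The concentration for full growth arrest is given as TGI.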
Columns and labels:
Assay in all cases: NCI tumour cell line growth inhibition, 48 h
UACC-257 melanoma = test system: UACC-257 melanoma
OVCAR-4 ovarian = test system: OVCAR-4 ovarian
HCT-15 colon = test system: HCT-15 colon
NCI/ADR-RES ovarian = test system: NCI/ADR-RES ovarian
OVCAR-5 ovarian = test system: OVCAR-5 ovarian
HOP-92 NSCLC = test system: HOP-92 NSCLC
HL-60(TB) leukemia = test system: HL-60(TB) leukemia
HCC-2998 colon = test system: HCC-2998 colon
SW-620 colon = test system: SW-620 colon
ACHN renal = test system: ACHN renal
U251 CNS = test system: U251 CNS
SK-MEL-28 melanoma = test system: SK-MEL-28 melanoma
CAKI-1 renal = test system: CAKI-1 renal
M19-MEL melanoma = test system: M19-MEL melanoma
MOLT-4 leukemia = test system: MOLT-4 leukemia
SR leukemia = test system: SR leukemia
SF-295 CNS = test system: SF-295 CNS
SNB-78 CNS = test system: SNB-78 CNS
SF-539 CNS = test system: SF-539 CNS
SK-MEL-2 melanoma = test system: SK-MEL-2 melanoma
HS 578T breast = test system: HS 578T breast
A549 NSCLC = test system: A549 NSCLC
OVCAR-8 ovarian = test system: OVCAR-8 ovarian
KM20L2 colon = test system: KM20L2 colon
EKVX NSCLC = test system: EKVX NSCLC
LOX IMVI melanoma = test system: LOX IMVI melanoma
NCI-H23 lung = test system: NCI-H23 lung
M14 melanoma = test system: M14 melanoma
HCT-116 colon = test system: HCT-116 colon
NCI-H460 lung = test system: NCI-H460 lung
UACC-62 melanoma = test system: UACC-62 melanoma
RXF-631 renal = test system: RXF-631 renal
OVCAR-3 ovarian = test system: OVCAR-3 ovarian
MDA-N = test system: MDA-N
LXFL 529 NSCLC = test system: LXFL 529 NSCLC
CCRF-CEM leukemia = test system: CCRF-CEM leukemia
SNB-19 CNS = test system: SNB-19 CNS
DMS 114 small cell lung = test system: DMS 114 small cell lung
MALME-3M melanoma = test system: MALME-3M melanoma
DU-145 prostate = test system: DU-145 prostate
RXF 393 renal = test system: RXF 393 renal
T-47D breast = test system: T-47D breast
MDA-MB-231 breast = test system: MDA-MB-231 breast
MDA-MB-435 = test system: MDA-MB-435
UO-31 renal = test system: UO-31 renal
XF 498 CNS = test system: XF 498 CNS
COLO 205 colon = test system: COLO 205 colon
NCI-H522 lung = test system: NCI-H522 lung
IGROV1 ovarian = test system: IGROV1 ovarian
SF-268 CNS = test system: SF-268 CNS
A498 renal = test system: A498 renal
DMS 273 small cell lung = test system: DMS 273 small cell lung
HOP-62 NSCLC = test system: HOP-62 NSCLC
SNB-75 CNS = test system: SNB-75 CNS
K-562 leukemia = test system: K-562 leukemia
TK-10 renal = test system: TK-10 renal
MCF7 breast = test system: MCF7 breast
HT29 colon = test system: HT29 colon
SK-OV-3 ovarian = test system: SK-OV-3 ovarian
SN12C renal = test system: SN12C renal
PC-3 prostate = test system: PC-3 prostate
BT-549 breast = test system: BT-549 breast
786-0 renal = test system: 786-0 renal
SK-MEL-5 melanoma = test system: SK-MEL-5 melanoma
NCI-H226 lung = test system: NCI-H226 lung

`CCN(CC)CCNc1c2ccccc2nc2cccc([N+](=O)[O-])c12` was tested, and the GI50 (UACC-257 melanoma) was 22 nM, the TGI (UACC-257 melanoma) was 50.2 nM and 65 nM and the GI50 (OVCAR-4 ovarian) was 27.9 nM. For the same compound, the TGI (OVCAR-4 ovarian) was 28.9 nM and 178 nM, the TGI (HCT-15 colon) was 20.5 nM and 39.8 nM and the TGI (NCI/ADR-RES ovarian) was 34 nM. It also gave a TGI (OVCAR-5 ovarian) of 30.2 nM, a TGI (HOP-92 NSCLC) of 26.1 nM and a GI50 (HL-60(TB) leukemia) of 10.4 nM. For the same compound, the TGI (HL-60(TB) leukemia) was 175 nM, the TGI (HCC-2998 colon) was 31.5 nM and 15.6 nM and the TGI (SW-620 colon) was 39.5 nM and 172 nM. For the same compound, the TGI (ACHN renal) was 18.4 nM and 46.8 nM, the TGI (U251 CNS) was 77.5 nM and the TGI (SK-MEL-28 melanoma) was 56.6 nM and 152 nM. For the same compound, the TGI (CAKI-1 renal) was 25.4 nM and 72.1 nM, the GI50 (M19-MEL melanoma) was 15.6 nM and the TGI (M19-MEL melanoma) was 40.9 nM. For the same compound, the TGI (MOLT-4 leukemia) was 124 nM, the TGI (SR leukemia) was 88.8 nM and the GI50 (SF-295 CNS) was 15 nM. For the same compound, the TGI (SF-295 CNS) was 34.2 nM and 64.3 nM, the GI50 (SNB-78 CNS) was 23 nM and the TGI (SNB-78 CNS) was 130 nM. The GI50 (SF-539 CNS) was 107 nM, the TGI (SF-539 CNS) was 47.2 nM and 251 nM and the GI50 (SK-MEL-2 melanoma) was 10.2 nM. The TGI (SK-MEL-2 melanoma) was 18.5 nM and 23 nM, the TGI (HS 578T breast) was 39 nM and the TGI (A549 NSCLC) was 18 nM and 39.1 nM. For the same compound, the TGI (OVCAR-8 ovarian) was 38.2 nM, the TGI (KM20L2 colon) was 55.3 nM and the GI50 (EKVX NSCLC) was 29 nM. The TGI (EKVX NSCLC) was 29.8 nM and 80 nM, the GI50 (LOX IMVI melanoma) was 36.3 nM and the TGI (NCI-H23 lung) was 18.8 nM. The TGI (M14 melanoma) was 18.8 nM and 24.5 nM, the TGI (HCT-116 colon) was 18.2 nM and 46.6 nM and the TGI (NCI-H460 lung) was 18.6 nM. It also gave a TGI (UACC-62 melanoma) of 20.8 nM, a GI50 (RXF-631 renal) of 10.7 nM and a TGI (RXF-631 renal) of 33.2 nM. The GI50 (OVCAR-3 ovarian) was 24.4 nM, the TGI (OVCAR-3 ovarian) was 24.1 nM and 62.1 nM and the TGI (MDA-N) was 3.73 nM. The TGI (LXFL 529 NSCLC) was 84.3 nM, the TGI (CCRF-CEM leukemia) was 480 nM and the GI50 (SNB-19 CNS) was 16.6 nM. For the same compound, the GI50 (DMS 114 small cell lung) was 11.7 nM, the TGI (DMS 114 small cell lung) was 93.5 nM and 33.5 nM and the GI50 (MALME-3M melanoma) was 13 nM. The TGI (MALME-3M melanoma) was 23.1 nM and 28.7 nM, the TGI (DU-145 prostate) was 14.6 nM and the TGI (RXF 393 renal) was 35.1 nM and 11.2 nM. It also gave a TGI (T-47D breast) of 66.1 nM, a TGI (MDA-MB-231 breast) of 4.87 nM and a TGI (MDA-MB-435) of 3.23 nM. The GI50 (UO-31 renal) was 71.2 nM, the TGI (UO-31 renal) was 41.2 nM and 252 nM and the TGI (XF 498 CNS) was 56.9 nM and 19.6 nM. The TGI (COLO 205 colon) was 17.6 nM, the TGI (NCI-H522 lung) was 13.2 nM and the TGI (IGROV1 ovarian) was 26.7 nM. For the same compound, the GI50 (SF-268 CNS) was 19.3 nM, the TGI (SF-268 CNS) was 56 nM and 420 nM and the TGI (A498 renal) was 14 nM. For the same compound, the TGI (DMS 273 small cell lung) was 78.7 nM, the TGI (HOP-62 NSCLC) was 16.4 nM and the TGI (SNB-75 CNS) was 34.7 nM. The TGI (K-562 leukemia) was 121 nM, the TGI (TK-10 renal) was 81.3 nM and the TGI (MCF7 breast) was 6.3 nM. For the same compound, the TGI (HT29 colon) was 40.8 nM and 45.5 nM, the TGI (SK-OV-3 ovarian) was 63.7 nM and the GI50 (SN12C renal) was 22.1 nM. For the same compound, the TGI (SN12C renal) was 41.3 nM and 207 nM, the TGI (PC-3 prostate) was 12.2 nM and the TGI (BT-549 breast) was 18.7 nM. The TGI (786-0 renal) was 26.6 nM and 48.9 nM, the GI50 (SK-MEL-5 melanoma) was 11.2 nM and the TGI (SK-MEL-5 melanoma) was 17.3 nM and 25.8 nM. It also gave a TGI (NCI-H226 lung) of 55.3 nM.

Source: PubChem BioAssay (NCI)
